± gives the expanded uncertainty stated by the source.
Test: xn = mol fraction of the nth substance listed
Details: 298.15 K, 101.3 kPa, Crystal

[O-2].[O-2].[Th+4] [thorium dioxide] + [O-2].[O-2].[U+4]
mass density [kg/m3]
Details | x1 = 0.3 | x1 = 0.5 | x1 = 0.6 | x1 = 0.7 | x1 = 0.8 | x1 = 0.9 | x1 = 1
From pellet mass and volume | 8570 ± 1900 | 8600 ± 1700 | 8410 ± 1700 | 9020 ± 1800 | 9240 ± 1800 | 8800 ± 1800 | 9390 ± 1900
X-ray diffraction | 10810 ± 210 | 10810 ± 140 | 10640 ± 130 | 10480 ± 100 | 10350 ± 70 | 10170 ± 50 | 10000 ± 30
buoyancy | 8960 ± 1900 | 8780 ± 1800 | 8690 ± 1800 | 9290 ± 1900 | 9590 ± 1900 | 9210 ± 1800 | 9430 ± 1900

— the NIST ThermoML archive (doi:10.1016/j.tca.2017.04.014)
